From patent US5380727A, “Synergistic combination for treating herpes infections” (Bio-Mega, Inc., priority 1990, dated 1995) come the findings set out here.

This assay deals with HSV-2 (strain HG-52). Nature of the assay: Inhibition of HSV-2 replication in BHK-21/C13 cell culture (viral titer by neutral red colorimetric assay). Format: cell-based. Particulars: Human alphaherpesvirus 2, BHK21 (C13); agent alone; HSV-2 strain HG-52 in BHK-21/C13 cells, 29 h incubation; read-out: IC50 (concentration causing 50% inhibition of virus replication). The procedure:
BHK-21/C13 cells (ATCC CCL 10) are incubated for two days in 150 cm^2 T-flasks (1.5×10^6 cells/flask) with alpha-MEM medium (Gibco Canada Inc., Burlington, Ontario, Canada) supplemented with 8% (v/v) fetal bovine serum (FBS, Gibco Canada Inc.). The cells are trypsinized and then transferred to fresh media in a 24 well plate to give 2.5×10^5 cells in 750 μL of media per well. The cells are incubated at 37° C. for a period of 6 hours to allow them to adhere to the plate. Thereafter, the cells are washed once with 500 μL of alpha-MEM supplemented with 0.5% (v/v) FBS and then incubated with 750 μL of the same media (low serum) for 3 days. After this period of serum starvation, the low serum medium is removed and the cells are incubated in 500 μL of BBMT for 2 to 3 hours. [BBMT medium is described by P. Brazeau et al., Proc. Natl. Acad. Sci. USA, 79, 7909 (1982).] Thereafter, the cells are infected with HSV-2 (multiplicity of infection=0.02 PFU/cell) in 100 μL of BBMT medium. […]
On completion of the above 2 hour incubation of the BHK-21/C13 cells, the media is replaced with alpha-MEM medium supplemented with 3% (v/v) FBS. The cells are now ready to be infected with the various sample dilutions of virus. […]

For the molecule `Nc1nc2c(ncn2COCCO)c(=O)[nH]1` [acyclovir, 9-[(2-hydroxyethoxy)methyl]guanine], the IC50 came out at 4 µM.
